Assays:
[1] = target: T1, HIV reverse transcriptase (HIV RT) (Human immunodeficiency virus type 1 group M subtype B, UniProt P03366); assay: Single nucleotide incorporation by HIV RT, gel-based, P1/T1 (Examples 2-3); format: biochemical, HIV-1
T1 construct: HIV RT polymerase was purchased from GE Healthcare; purchased GE Healthcare (Amersham Bioscience)
Experimental: A typical single nucleotide incorporation and primer extension assays using HIV RT polymerase was carried out similar to one described in the literature. HIV RT polymerase was purchased from GE Healthcare and was supplied as either 12 or 30 U/μL stock solution. The final concentration of HIV RT in a reaction mixture was 0.03-0.003 U/μL. A primer/template duplex mixture was prepared by combining appropriate amounts of a 5′-^33P-labeled primer (P1) and a template in 1:2 molar ratio to provide a 4× solution with 0.5 μM primer concentration. The polymerase reactions were carried out in a 5×RT buffer containing 250 mM TRIS.HCL, 250 mM KCl, 50 mM MgCl2, 2.5 mM spermidine, 50 mM DTT, pH 8.3. For the single nucleotide incorporation assay, a P1/T1 primer-template pair was used whereas the primer extension study was performed with P1/T3 and P1/T5 primer-template pairs.
Briefly, a mixture containing 5 μL of the 4× primer/DNA duplex solution and 5 μL of 4× polymerase solution was pre-incubated at 37° C. for 2 minutes to ensure formation a DNA polymerase/DNA duplex complex. Simultaneously, 2× solutions of dNTP to provide final concentrations of 100 μM, 200 μM, 500 μM and 1 mM were also pre-incubated at 37° C. for 2 minutes as well. The polymerase reaction in a total volume of 20 μL was initiated by addition of 10 μL of the 2× dNTP solution to the DNA polymerase/DNA duplex mixture. The reactions were run at 37° C. and aliquots (2.5 μL) were removed at specified time points and mixed with 10 μL of a quenching buffer containing 80% formamide, 2 mM EDTA, 1×TBE. Quenched reactions were analyzed by loading 2 μL of a reaction sample onto a 20% denaturing polyacrylamide:gel (19:1 acrylamide:bisacrylamide, 7M urea, 0.4 mm×30 cm×40 cm) made in 1×TBE buffer (90 mM Tris-borate, 2 mM EDTA, pH 8.3). The gel was pre-equilibrated for 2 hours before loading and the reactions were run along with a tracking dye marker containing bromophenol blue (BB) and xylene cyanol (XC) until the BB dye had run ⅔ of the total gel length. For visualization, gels were scanned using a Cyclone Phosphoroimager.

[2] = target: T2, Therminator DNA polymerase (Thermococcus sp., UniProt Q56366, A485L/D141A/E143A); assay: Primer extension by Therminator DNA polymerase (P1/T3, P1/T5); format: biochemical, (9° N-7) Thermococcus sp.
T2 construct: purchased Westburg (NEB)
Experimental: Primer extension study with HIV RT and Therminator DNA polymerase was performed in a fashion similar to the single nucleotide incorporation experiments. Two sets of primer/template complexes were used: P1/T3 and P1/T5.
In the case of Therminator DNA polymerase, the enzyme was obtained from Westburg (NEB) (2 U/μL) and the reactions were carried out in a 10× Thermopol reaction buffer containing 20 mM TRIS.HCl, 10 mM KCl, 2 mM MgSO4, 0.1% Triton X-100, pH 8.8. The final concentration of the Therminator DNA pol in the reaction mixture was 8.33×10^−4 U/μL. The polymerase reaction involving Therminator DNA polymerase or any other thermostable polymerase (Vent (exo^−), Taq DNA polymerase) was carried out in a similar way as the HIV RT reaction with some modifications. The dNTP solutions and the primer/template/DNA polymerase mixture solutions were topped with mineral oil (30-60 μL) and pre-incubated at 70° C. for 2 minutes. The polymerase reactions were performed at 70° C. as well.

HIV RT = target: T3, HIV RT (Human immunodeficiency virus type 1 group M subtype B, UniProt P03366); assay: Steady state kinetics of single nucleotide incorporation by HIV RT (P1/T1); format: biochemical, HIV-1
T3 construct: HIV RT polymerase was purchased from GE Healthcare; purchased GE Healthcare (Amersham Bioscience)
Experimental: The steady steate kinetics of a single nucleotide incorporation of an amino acid phosphoramidate (AA-dAMP) and of a natural nucleoside triphosphate (dATP) was determined by the gel-based polymerase assay. In all the experiments, the template T1 and the primer P1 were used (Table 1). The primer and template in 1:2 molar ratio were hybridized in a buffer containing 20 mM TRIS.HCl, 10 mM KCl, 2 mM MgSO4, 0.1% Triton X-100, pH 8.8 and used in an amount to provide 125 nM concentration of the primer in each 12 μL reaction. The range of concentrations for amino acid phosphoramidates was optimized according to a Km value for the incorporation of an individual nucleotide. In the case of HIV RT (Amersham Bioscience (GE Healthcare), 30 U/μL), reaction mixtures containing the enzyme in concentration to attain 5-20% conversion and appropriate substrate concentration (nucleoside phosphoramidate or natural dNTP) were incubated at 37° C. and run for 8-10 different time intervals. Kinetic analysis of single nucleotide incorporation by Therminator DNA polymerase (NEB, 2 U/μL) was performed similarly except the incubations and polymerase reactions, which were carried out at 70° C. To prevent solvent condensation/evaporation, the reaction mixtures were topped with mineral oil. The reactions were quenched by addition of the buffer containing 80% formamide, 2 mM EDTA, 1×TBE buffer. The analysis of polymerase reactions was performed by polyacrylamide gel electrophoresis (20% (19:1 mono:bis), 7M urea, 30 cm×40 cm×0.4 mm). The relative band intensities were measured using OptiQuant software. The rates of incorporation (V) were calculated based on the percentage of the extension production (n+1 band). The kinetic parameters (Vmax and Km) were determined by plotting V (pmol/min·U) versus substrate concentration and fitting the data point to a rectangular hyperbola using GraphPad Prism software.

T2 sequence (Q56366 whole entry D141A/E143A/A485L): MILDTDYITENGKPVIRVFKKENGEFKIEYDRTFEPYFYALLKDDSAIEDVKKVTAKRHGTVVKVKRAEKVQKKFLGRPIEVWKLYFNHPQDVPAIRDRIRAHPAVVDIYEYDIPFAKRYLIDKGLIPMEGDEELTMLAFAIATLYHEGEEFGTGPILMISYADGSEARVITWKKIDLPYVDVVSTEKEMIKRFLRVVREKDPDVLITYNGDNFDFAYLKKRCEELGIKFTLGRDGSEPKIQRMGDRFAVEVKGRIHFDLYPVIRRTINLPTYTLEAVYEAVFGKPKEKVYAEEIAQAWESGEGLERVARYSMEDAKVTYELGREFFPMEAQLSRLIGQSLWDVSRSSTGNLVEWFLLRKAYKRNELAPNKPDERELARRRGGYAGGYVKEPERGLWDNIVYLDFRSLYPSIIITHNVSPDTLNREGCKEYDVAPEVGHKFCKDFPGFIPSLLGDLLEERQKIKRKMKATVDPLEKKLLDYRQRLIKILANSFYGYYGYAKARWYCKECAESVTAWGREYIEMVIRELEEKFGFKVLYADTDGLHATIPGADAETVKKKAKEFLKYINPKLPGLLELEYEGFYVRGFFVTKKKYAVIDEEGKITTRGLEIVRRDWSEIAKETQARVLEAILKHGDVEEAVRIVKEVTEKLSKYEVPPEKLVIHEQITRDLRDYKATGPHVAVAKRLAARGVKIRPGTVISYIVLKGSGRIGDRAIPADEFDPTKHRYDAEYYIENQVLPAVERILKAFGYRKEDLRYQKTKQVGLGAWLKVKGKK

Substance: 2′-deoxy-adenosine-5′-aspartyl-phosphoramidate [Compound 1]
- conversion to a n+1 strand ([1]; 500 μM nucleotide concentration, 60 min, P1/T1): 90%
- incorporation ([1]; substrate concentration decreased 10 fold (from 500 μM)): 24.1%
- primer extension ([2]; T3 template): successfully incorporated
- number of adenine residues incorporated ([2]; T5 template, overhang of seven thymidine residues): up to five adenine residues
- Km, fold higher as compared to dATP (HIV RT): 400 fold
- Vmax, fold lower than natural substrate dATP (HIV RT): 3 fold
- specificity (Vmax/Km), fold reduced vs natural substrate (HIV RT): 1300 fold
- Km (HIV RT; P1/T1, 37° C.): 185 ± 24.5 µM
- Vmax (HIV RT; P1/T1, 37° C.): 2.63 ± 0.13 pmol/min · U
